From ChEMBL document CHEMBL5120779, “Thiazolidinedione-Based Structure Modification of Celastrol Provides Thiazolidinedione-Conjugated Derivatives as Potent Agents against Non-Small-Cell Lung Cancer Cells through a Mitochondria-Mediated Apoptotic Pathway” (J Nat Prod, 2022)
The source made the active and inactive calls. No cut-off for these calls is given here.

How the values were obtained:
A549 [1] = experiment: Induction of apoptosis in human A549 cells assessed as increase in cleaved caspase-8 expression at 0.25 to 4 uM incubated for 48 hrs by western blot analysis; format: functional, cell-based; conditions: dose 0.25-4 µM
[2] = Cytotoxicity against human MRC5 cells assessed as inhibition of cell growth measured after 96 hrs by MTT assay; format: toxicity, cell-based
A549 [3] = experiment: cells; conditions: Homo sapiens, A549, 96 h
Description: Cytotoxicity against human A549 cells assessed as inhibition of cell growth measured after 96 hrs by MTT assay

A549 [4] = experiment: Cytotoxicity against human A549 cells assessed as inhibition of cell proliferation at 0.1 uM pretreated for 2 hrs with necroptosis inhibitor, necrostatin-1 followed by incubation with compound and measured after 48 hrs by MTT assay; format: functional, cell-based
A549 [5] = experiment: Anti-tumor activity against human A549 cells xenografted in BALB/c mouse assessed as reduction in tumor weight at 8 mg/kg, iv administered every 2 days for 13 days; format: functional; conditions: A549, 312 h, time 13 day
A549 [6] = experiment: Induction of apoptosis in human A549 cells assessed as increase in Bax protein expression at 0.25 to 4 uM incubated for 48 hrs by western blot analysis; format: functional, cell-based; conditions: dose 0.25-4 µM
A549 [7] = experiment: Induction of apoptosis in human A549 cells assessed as increase in cleaved caspase-9 expression incubated for 48 hrs by western blot analysis; format: functional, cell-based; conditions: dose 0.25-4 µM, DDE = dose-dependent effect
A549 [8] = experiment: Induction of apoptosis in human A549 cells assessed as early apoptotic cells at 0.5 uM incubated for 48 hrs by Annexin V-FITC/propidium iodide staining based flow cytometry (reference value: 0.11%); format: functional
A549 [9] = experiment: Cytotoxicity against human A549 cells assessed as inhibition of cell proliferation measured after 24 to 72 hrs by MTT assay; format: functional, cell-based; conditions: dose 0.125-2 µM, time 24-72 hrs, DDE = dose-dependent effect
A549 [10] = experiment: Induction of apoptosis in human A549 cells assessed as late apoptotic cells at 0.125 uM incubated for 48 hrs by Annexin V-FITC/propidium iodide staining based flow cytometry (reference value: 0.82%); format: functional
A549 [11] = experiment: Induction of mitochondrial membrane potential depolarization in human A549 cells assessed as proportion of cells with intact mitochondria by measuring red fluorescent J-aggregates at 0.5 uM incubated for 48 hrs by JC-1 staining based flow cytometry (reference value: 63.9%); format: functional
A549 [12] = experiment: Induction of apoptosis in human A549 cells assessed as viable cells at 0.25 uM incubated for 48 hrs by Annexin V-FITC/propidium iodide staining based flow cytometry (reference value: 95.7%); format: functional; conditions: read-out: Activity
A549 [13] = experiment: Anti-tumor activity against human A549 cells xenografted in iv dosed BALB/c mouse assessed as reduction in tumor growth administered every 2 days for 13 days; format: functional, organism-based; conditions: dose 2-8 mg/kg, time 13.0 day, DDE = dose-dependent effect
A549 [14] = experiment: Induction of apoptosis in human A549 cells assessed as early apoptotic cells at 0.125 uM incubated for 48 hrs by Annexin V-FITC/propidium iodide staining based flow cytometry (reference value: 0.11%); format: functional
A549 [15] = experiment: Anti-tumor activity against human A549 cells xenografted in BALB/c mouse assessed as reduction in tumor weight at 4 mg/kg, iv administered every 2 days for 13 days; format: functional; conditions: A549, 312 h, time 13 day
A549 [16] = experiment: Induction of apoptosis in human A549 cells assessed as increase in cleaved caspase-3 expression incubated for 48 hrs by western blot analysis; format: functional, cell-based; conditions: dose 0.25-4 µM, DDE = dose-dependent effect
A549 [17] = experiment: Induction of apoptosis in human A549 cells assessed as necrotic cells at 0.5 uM incubated for 48 hrs by Annexin V-FITC/propidium iodide staining based flow cytometry (reference value: 3.36%); format: functional
A549 [18] = experiment: Anti-tumor activity against human A549 cells xenografted in BALB/c mouse assessed as reduction in tumor weight at 2 mg/kg, iv administered every 2 days for 13 days; format: functional; conditions: A549, 312 h, time 13 day
A549 [19] = experiment: Induction of mitochondrial membrane potential depolarization in human A549 cells assessed as proportion of cells with depolarized mitochondria by measuring green fluorescent J-monomers at 0.25 uM incubated for 48 hrs by JC-1 staining based flow cytometry (reference value: 34.2%); format: functional
A549 [20] = experiment: Induction of mitochondrial membrane potential depolarization in human A549 cells assessed as proportion of cells with depolarized mitochondria by measuring green fluorescent J-monomers at 0.5 uM incubated for 48 hrs by JC-1 staining based flow cytometry (reference value: 34.2%); format: functional
A549 [21] = experiment: Induction of apoptosis in human A549 cells assessed as increase in cleaved PARP expression incubated for 48 hrs by western blot analysis; format: functional, cell-based; conditions: dose 0.25-4 µM, DDE = dose-dependent effect
A549 [22] = experiment: Induction of apoptosis in human A549 cells assessed as necrotic cells at 0.125 uM incubated for 48 hrs by Annexin V-FITC/propidium iodide staining based flow cytometry (reference value: 3.36%); format: functional
[23] = Selectivity index, ratio of IC50 for human MRC5 cells to IC50 for human A549 cells; format: toxicity; conditions: MRC5 cells and A549 cells, read-out: Ratio IC50
[24] = Toxicity in BALB/c mouse xenografted with human A549 cells assessed as body weight loss at 2 to 8 mg/kg, iv administered every 2 days for 13 days; format: organism-based; conditions: in vivo, 312 h, dose 2-8 mg/kg, time 13 day
A549 [25] = experiment: Anti-tumor activity against human A549 cells xenografted in BALB/c mouse assessed as reduction in tumor volume at 2 to 8 mg/kg, iv administered every 2 days for 13 days; format: functional, organism-based; conditions: dose 2-8 mg/kg, time 13.0 day
A549 [26] = experiment: Induction of apoptosis in human A549 cells assessed as decrease in Bcl-2 protein expression at 0.25 to 4 uM incubated for 48 hrs by western blot analysis; format: functional, cell-based; conditions: dose 0.25-4 µM
A549 [27] = experiment: Potency index, ratio of celastrol IC50 to test compound IC50 for cytotoxicity against human A549 cells by MTT assay; format: functional
A549 [28] = experiment: Induction of apoptosis in human A549 cells assessed as late apoptotic cells at 0.25 uM incubated for 48 hrs by Annexin V-FITC/propidium iodide staining based flow cytometry (reference value: 0.82%); format: functional
A549 [29] = experiment: Induction of apoptosis in human A549 cells assessed as viable cells at 0.125 uM incubated for 48 hrs by Annexin V-FITC/propidium iodide staining based flow cytometry (reference value: 95.7%); format: functional; conditions: read-out: Activity
A549 [30] = experiment: Induction of apoptosis in human A549 cells assessed as nuclear fragmentation and chromatin condensation incubated for 48 hrs by Hoechst 33342 staining based fluorescence microscopic analysis; format: functional, cell-based; conditions: dose 0.25-0.5 µM, DDE = dose-dependent effect
A549 [31] = experiment: Induction of mitochondrial membrane potential depolarization in human A549 cells assessed as proportion of cells with depolarized mitochondria by measuring green fluorescent J-monomers at 0.125 uM incubated for 48 hrs by JC-1 staining based flow cytometry (reference value: 34.2%); format: functional
A549 [32] = experiment: Induction of apoptosis in human A549 cells assessed as early apoptotic cells at 0.25 uM incubated for 48 hrs by Annexin V-FITC/propidium iodide staining based flow cytometry (reference value: 0.11%); format: functional
A549 [33] = experiment: Induction of mitochondrial membrane potential depolarization in human A549 cells assessed as proportion of cells with intact mitochondria by measuring red fluorescent J-aggregates at 0.125 uM incubated for 48 hrs by JC-1 staining based flow cytometry (reference value: 63.9%); format: functional
A549 [34] = experiment: Cytotoxicity against human A549 cells assessed as inhibition of cell proliferation at 0.1 uM pretreated for 2 hrs with autophagy inhibitor, 3-methyladenine followed by incubation with compound and measured after 48 hrs by MTT assay; format: functional, cell-based
A549 [35] = experiment: Induction of apoptosis in human A549 cells assessed as viable cells at 0.5 uM incubated for 48 hrs by Annexin V-FITC/propidium iodide staining based flow cytometry (reference value: 95.7%); format: functional; conditions: read-out: Activity
[36] = Stability of the compound in DMEM culture medium at 100 ug/ml measured after 72 hrs by HPLC analysis; format: physicochemical; conditions: at 100 µg/mL
A549 [37] = experiment: Induction of apoptosis in human A549 cells assessed as necrotic cells at 0.25 uM incubated for 48 hrs by Annexin V-FITC/propidium iodide staining based flow cytometry (reference value: 3.36%); format: functional
A549 [38] = experiment: Cytotoxicity against human A549 cells assessed as inhibition of cell proliferation at 0.125 to 2 uM by MTT assay; format: functional, cell-based; conditions: dose 0.125-2 µM, time 24-72 hrs, TDE = time-dependent effect
A549 [39] = experiment: Induction of apoptosis in human A549 cells assessed as late apoptotic cells at 0.5 uM incubated for 48 hrs by Annexin V-FITC/propidium iodide staining based flow cytometry (reference value: 0.82%); format: functional
A549 [40] = experiment: Induction of mitochondrial membrane potential depolarization in human A549 cells assessed as proportion of cells with intact mitochondria by measuring red fluorescent J-aggregates at 0.25 uM incubated for 48 hrs by JC-1 staining based flow cytometry (reference value: 63.9%); format: functional

## CC1=C(O)C(=O)C=C2C1=CC=C1[C@@]2(C)CC[C@@]2(C)[C@@H]3C[C@](C)(C(=O)N4CCN(C(=O)CN5C(=O)S/C(=C\C6CC6)C5=O)CC4)CC[C@]3(C)CC[C@]12C
A549 [1]
  Activity: Active
[2]
  IC50 at 96 h: 3020 nM
A549 [3]
  IC50: 80 nM
A549 [4]
  Activity: Active
A549 [5]
  inhibition in vivo at 8 mg/kg: 69.5%
A549 [6]
  Activity: Active
A549 [7]
  Activity: Dde
A549 [8]
  Activity: 3.73%
A549 [9]
  Activity: Dde
A549 [10]
  Activity: 7.71%
A549 [11]
  Activity: 51.7%
A549 [12]
  viability at 0.25 µM: 71.8%
A549 [13]
  Activity: Dde
A549 [14]
  Activity: 1.9%
A549 [15]
  inhibition in vivo at 4 mg/kg: 64.4%
A549 [16]
  Activity: Dde
A549 [17]
  Activity: 6.96%
A549 [18]
  inhibition in vivo at 2 mg/kg: 48.8%
A549 [19]
  Activity: 42.3%
A549 [20]
  Activity: 46.4%
A549 [21]
  Activity: Dde
A549 [22]
  Activity: 4.59%
[23]
  selectivity ratio: 37.8
[24]
  Activity: Non-Toxic
A549 [25]
  Activity: Active
A549 [26]
  Activity: Active
A549 [27]
  Ratio IC50: 13.8
A549 [28]
  Activity: 19.6%
A549 [29]
  viability at 0.125 µM: 85.8%
A549 [30]
  Activity: Dde
A549 [31]
  Activity: 38.2%
A549 [32]
  Activity: 2.68%
A549 [33]
  Activity: 60.2%
A549 [34]
  Activity: Active
A549 [35]
  viability at 0.5 µM: 59.8%
[36]
  Stability: Stable
A549 [37]
  Activity: 5.86%
A549 [38]
  Activity: Tde
A549 [39]
  Activity: 29.5%
A549 [40]
  Activity: 56%
